Columns and labels:
[1] = target: mitochondrial RNA-polymerase (POLRMT) (Mus musculus, UniProt Q8BKF1); experiment: Homogeneous TR-FRET assay for mitochondrial transcription activity; format: biochemical; settings: homogeneous TR-FRET assay according to Example 4; activity class
How it was run: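 TR-FRET read-out (340 nm excitation, 665 nm emission) of a 407 bp transcript captured by Eu-streptavidin/biotin donor and ATTO647N acceptor DNA probes after EDTA stop. Transcription ran 2 h at RT with 500 μM […], mouse POLRMT/TFAM/TFB2M and LSP-plasmid template, after 10 min compound preincubation (10 μM or dilution series).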

[2] = test system: mitochondrial transcription (7S RNA) in HeLa cells; experiment: Quantitative real time-PCR assay of inhibition of mitochondrial transcription (cellular qPCR assay IMT); format: cell-based; settings: Homo sapiens, 4 h compound incubation, qRT-PCR according to Example 5, activity class
Protocol: Quantitative real-time PCR (qRT-PCR), based on the TagMan™ (Thermo Fisher Scientific, Waltham Mass.) technology, was carried out essentially as described in (Heid et al., 1996). HeLa cells were plated one day before compound treatment in RPMI medium supplemented with 10% Fetal Calf Serum and 2 mM L-glutamine. Cells were incubated with dilution series of compounds or vehicle (DMSO) for 4 h, prior to harvest and extraction of the RNA using the RNeasy Mini Kit (Qiagen, Hilden D), according to the manufacturer's instructions. RNA concentrations were measured spectroscopically, using a NanoDrop-2000 (Thermo Fisher Scientific, Waltham Mass.) and normalized prior to cDNA synthesis, using a ‘High-Capacity cDNA Reverse Transcription Kit’ (Thermo Fisher Scientific, Waltham Mass.). qRT-PCR was carried out using the ‘TaqMan Fast Advance Master Mix’ (Thermo Fisher Scientific, Waltham Mass.) on a 7500 Fast Real-Time PCR machine (Applied Biosystems, Foster City Calif.)
For these measurements, three genes were used to compare the effect of the scrutinized compounds in relation to their concentration. The POLRMT-gene was used to detect potential influences on nuclear transcription. Mitochondrial transcription in vivo was monitored by measurements 7S RNA. The TBP (TATA-box binding protein) gene was employed as the control (housekeeping gene) during qRT-PCR. The short-lived mitochondrial 7S RNA, which is not post-transcriptionally stabilized, allowed us to monitor rapid changes in mitochondrial transcription activity following compound addition. Biological triplicates were analyzed using the comparative CT Method (ΔΔCt) method (Bubner and Baldwin, 2004) and reported as Rq % values (Rq=Relative quantification=2-ΔΔCt).

Chain of mitochondrial RNA-polymerase (POLRMT) (Q8BKF1 42-1207): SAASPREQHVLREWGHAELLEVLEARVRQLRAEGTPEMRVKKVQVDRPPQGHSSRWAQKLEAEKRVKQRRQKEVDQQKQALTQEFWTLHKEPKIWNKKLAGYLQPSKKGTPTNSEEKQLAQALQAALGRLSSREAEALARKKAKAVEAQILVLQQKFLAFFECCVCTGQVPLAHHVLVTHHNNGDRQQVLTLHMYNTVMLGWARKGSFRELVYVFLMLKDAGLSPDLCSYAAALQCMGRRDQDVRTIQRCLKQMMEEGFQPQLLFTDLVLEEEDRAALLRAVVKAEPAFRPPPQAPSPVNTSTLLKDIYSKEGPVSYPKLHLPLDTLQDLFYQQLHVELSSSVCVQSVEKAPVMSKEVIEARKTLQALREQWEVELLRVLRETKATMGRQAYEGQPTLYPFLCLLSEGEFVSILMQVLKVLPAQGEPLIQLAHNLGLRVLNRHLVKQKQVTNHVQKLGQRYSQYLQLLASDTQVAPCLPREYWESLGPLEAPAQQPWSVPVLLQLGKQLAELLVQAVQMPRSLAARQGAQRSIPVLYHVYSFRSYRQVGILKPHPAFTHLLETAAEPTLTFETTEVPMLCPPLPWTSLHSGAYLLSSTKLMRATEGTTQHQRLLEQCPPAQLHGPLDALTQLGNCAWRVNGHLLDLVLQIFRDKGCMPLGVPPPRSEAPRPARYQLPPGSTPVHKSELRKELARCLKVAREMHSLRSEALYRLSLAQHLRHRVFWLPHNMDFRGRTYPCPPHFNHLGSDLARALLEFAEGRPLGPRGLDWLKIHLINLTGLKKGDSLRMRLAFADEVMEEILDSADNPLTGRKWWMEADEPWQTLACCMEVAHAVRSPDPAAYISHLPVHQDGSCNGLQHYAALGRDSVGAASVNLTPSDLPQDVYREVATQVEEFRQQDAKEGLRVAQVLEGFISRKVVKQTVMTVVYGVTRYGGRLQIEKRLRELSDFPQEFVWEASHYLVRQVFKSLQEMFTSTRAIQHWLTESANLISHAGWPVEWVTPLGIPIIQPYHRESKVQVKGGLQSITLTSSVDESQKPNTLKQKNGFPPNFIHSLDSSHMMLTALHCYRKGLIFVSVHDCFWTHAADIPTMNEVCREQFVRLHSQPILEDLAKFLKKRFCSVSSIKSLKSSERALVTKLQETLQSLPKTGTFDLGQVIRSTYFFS

Row | IC50 [1] | IC50 [2] | Structure (SMILES)
1 | 0.1 to 1 µM | 0.5 to 5 µM | C[C@@H](Oc1ccc2c(-c3ccc(F)cc3Cl)cc(=O)oc2c1)C(=O)N1CCN(C)C(C(=O)O)C1 (mixture of isomers) [Compound 161, 1-methyl-4-[rac-(2R)-2-[4-(2-chloro-4-fluoro-phenyl)-2-oxo-chromen-7-yl]oxypropanoyl]piperazine-2-carboxylic acid]
2 | < 0.02 µM | 0.01 to 0.05 µM | COC(=O)C[C@H]1CCCN(C(=O)[C@@H](C)Oc2ccc3c(-c4ccc(F)cc4Cl)cc(=O)oc3c2)C1 [Compound 104, methyl 2-[(3R)-1-[(2R)-2-[4-(2-chloro-4-fluoro-phenyl)-2-oxo-chromen-7-yl]oxypropanoyl]-3-piperidyl]acetate]
3 | < 0.02 µM | < 0.01 µM | CNC(=O)C1CCCN(C(=O)C(C)Oc2ccc3c(-c4ccccc4C)cc(=O)oc3c2)C1 (stereo not drawn) [Compound 21, N-methyl-1-[2-[4-(o-tolyl)-2-oxo-chromen-7-yl]oxypropanoyl]piperidine-3-carboxamide]
4 | 0.02 to 0.1 µM | 0.05 to 0.5 µM | CC(C)OC(=O)[C@H]1CCCN(C(=O)[C@@H](C)Oc2ccc3c(-c4ccc(F)cc4Cl)cc(=O)oc3c2)C1 [Compound 117, isopropyl (3S)-1-[(2R)-2-[4-(2-chloro-4-fluoro-phenyl)-2-oxo-chromen-7-yl]oxypropanoyl] piperidine-3-carboxylate]
5 | 0.02 to 0.1 µM | < 0.01 µM | Cc1ccccc1-c1cc(=O)oc2cc(OC(C)C(=O)NC(C)C)ccc12 (stereo not drawn) [Compound 62, N-isopropyl-2-[4-(o-tolyl)-2-oxo-chromen-7-yl]oxy-propanamide]
6 | < 0.02 µM | < 0.01 µM | C[C@@H](Oc1ccc2c(-c3ccc(F)cc3Cl)cc(=O)oc2c1)C(=O)N1CCN(C(=O)CCl)CC1 [Compound 166, (R)-4-(2-chloro-4-fluorophenyl)-7-((1-(4-(2-chloroacetyl)piperazin-1-yl)-1-oxopropan-2-yl)oxy)-2H-chromen-2-one]
7 | 0.02 to 0.1 µM | < 0.01 µM | C[C@@H](Oc1ccc2c(-c3ccc(F)cc3Cl)cc(=O)oc2c1)C(=O)N1CCC[C@H](CC(=O)OC(C)(C)C)C1 [Compound 124, tert-butyl 2-[(3R)-1-[(2R)-2-[4-(2-chloro-4-fluoro-phenyl)-2-oxo-chromen-7-yl]oxypropanoyl]-3-piperidyl]acetate]
8 | 0.02 to 0.1 µM | 0.05 to 0.5 µM | C[C@@H](Oc1ccc2c(-c3ccccc3Cl)cc(=O)oc2n1)C(=O)N1CCC[C@H](C(=O)O)C1 [Compound 172, (3S)-1-[(2R)-2-[4-(2-chlorophenyl)-2-oxo-pyrano[2,3-b]pyridin-7-yl]oxypropanoyl]piperidine-3-carboxylic acid]
9 | 0.1 to 1 µM | < 0.01 µM | CCNC(=O)C(C)Oc1ccc2c(-c3ccccc3Cl)cc(=O)oc2c1 (stereo not drawn) [Compound 98, 2-[4-(2-chlorophenyl)-2-oxo-chromen-7-yl]oxy-N-ethyl-propanamide]
10 | 0.1 to 1 µM | 0.5 to 5 µM | CC(C)(Oc1ccc2c(-c3ccccc3Cl)cc(=O)oc2c1)C(=O)N1CCC[C@H](C(=O)O)C1 [Compound 116, (3S)-1-[2-[4-(2-chlorophenyl)-2-oxo-chromen-7-yl]oxy-2-methyl-propanoyl]piperidine-3-carboxylic acid]
11 | 0.02 to 0.1 µM | 0.01 to 0.05 µM | COC(=O)C[C@@H]1CCCN(C(=O)[C@@H](C)Oc2ccc3c(-c4ccc(F)cc4Cl)cc(=O)oc3c2)C1 [Compound 105, methyl 2-[(3S)-1-[(2R)-2-[4-(2-chloro-4-fluoro-phenyl)-2-oxo-chromen-7-yl]oxypropanoyl]-3-piperidyl]acetate]
12 | 0.02 to 0.1 µM | < 0.01 µM | CC(C)OC(=O)OCOC(=O)[C@H]1CCCN(C(=O)[C@@H](C)Oc2ccc3c(-c4ccc(F)cc4Cl)cc(=O)oc3c2)C1 [Compound 121, (S)-((isopropoxycarbonyl)oxy)methyl 1-((R)-2-((4-(2-chloro-4-fluorophenyl)-2-oxo-2H-chromen-7-yl)oxy)propanoyl)piperidine-3-carboxylate]
13 | < 0.02 µM | < 0.01 µM | C[C@@H](Oc1ccc2c(-c3ccc(F)cc3Cl)cc(=O)oc2c1)C(=O)N1CCC[C@@H](CC(=O)O)C1 [Compound 107, 2-[(3S)-1-[(2R)-2-[4-(2-chloro-4-fluoro-phenyl)-2-oxo-chromen-7-yl]oxypropanoyl]-3-piperidyl]acetic acid]
14 | < 0.02 µM | < 0.01 µM | CC(Oc1ccc2c(-c3ccccc3Cl)cc(=O)oc2c1)C(=O)N1CCCC(S(N)(=O)=O)C1 (stereo not drawn) [Compound 24, 1-[2-[4-(2-chlorophenyl)-2-oxo-chromen-7-yl]oxypropanoyl]piperidine-3-sulfonamide]
15 |  | < 0.01 µM | C[C@@H](Oc1ccc2c(-c3ccc(F)cc3Cl)cc(=O)oc2c1)C(=O)N1CCC[C@H](C(=O)OCCN2CCOCC2)C1 [Compound 119, 2-morpholinoethyl (3S)-1-[(2R)-2-[4-(2-chloro-4-fluoro-phenyl)-2-oxo-chromen-7-yl]oxypropanoyl]piperidine-3-carboxylate]
16 | 0.02 to 0.1 µM |  | CCOC(=O)C(C)Oc1ccc2c(-c3ccc(F)cc3Cl)cc(=O)oc2c1 (stereo not drawn) [Compound 82, Ethyl 2-((4-(2-chloro-4-fluorophenyl)-2-oxo-2H-chromen-7-yl)oxy)propanoate]
17 | 0.02 to 0.1 µM |  | COC(=O)c1ccc(NC(=O)[C@@H](C)Oc2ccc3c(-c4ccc(F)cc4Cl)cc(=O)oc3c2)cn1 [Compound 153, methyl 5-[[(2R)-2-[4-(2-chloro-4-fluoro-phenyl)-2-oxo-chromen-7-yl]oxypropanoyl]amino]pyridine-2-carboxylate]
18 | < 0.02 µM |  | Cc1ccccc1-c1cc(=O)oc2cc(O[C@H](C)C(=O)N3CCCCC3)ccc12 [Compound 30, 7-[(1R)-1-methyl-2-oxo-2-(1-piperidyl)ethoxy]-4-(o-tolyl)chromen-2-one]
19 | < 0.02 µM |  | CC(Oc1ccc2c(-c3ccccc3Cl)cc(=O)oc2c1)C(=O)N1CCCC(S(=O)(=O)O)C1 (stereo not drawn) [Compound 11, 1-[2-[4-(2-chlorophenyl)-2-oxo-chromen-7-yl]oxypropanoyl]piperidine-3-sulfonic acid]
20 | < 0.02 µM |  | C[C@@H](Oc1ccc2c(-c3ccc(F)cc3Cl)cc(=O)oc2c1)C(=O)Nc1cccc(C(=O)O)n1 [Compound 151, 6-[[(2R)-2-[4-(2-chloro-4-fluoro-phenyl)-2-oxo-chromen-7-yl]oxypropanoyl]amino]pyridine-2-carboxylic acid]
21 | 0.1 to 1 µM |  | C[C@@H](Oc1ccc2c(-c3c(Cl)cccc3Cl)cc(=O)oc2c1)C(=O)N1CCC[C@H](C(=O)O)C1 [Compound 163, (3S)-1-[(2R)-2-[4-(2,6-dichlorophenyl)-2-oxo-chromen-7-yl]oxypropanoyl]piperidine-3-carboxylic acid]
22 | < 0.02 µM |  | CC(Oc1ccc2c(-c3ccccc3Cl)cc(=O)oc2c1)C(=O)Nc1ccc(CCO)cc1 (stereo not drawn) [Compound 35, 2-[4-(2-chlorophenyl)-2-oxo-chromen-7-yl]oxy-N-[4-(2-hydroxyethyl)phenyl]propanamide]
23 | 0.1 to 1 µM |  | CC(Oc1ccc2c(-c3ccc(F)cc3Cl)cc(=O)oc2c1)C(=O)O (stereo not drawn) [Compound 99, 2-((4-(2-chloro-4-fluorophenyl)-2-oxo-2H-chromen-7-yl)oxy)propanoic acid]
24 | < 0.02 µM |  | C[C@@H](Oc1ccc2c(-c3ccccc3Cl)cc(=O)oc2c1)C(=O)N1CCC[C@H](CC(=O)O)C1 [Compound 103, 2-[(3R)-1-[(2R)-2-[4-(2-chlorophenyl)-2-oxo-chromen-7-yl]oxypropanoyl]-3-piperidyl]acetic acid]
25 | < 0.02 µM |  | Cc1cc(F)ccc1-c1cc(=O)oc2cc(O[C@H](C)C(=O)N3CCC[C@H](C(=O)O)C3)ccc12 [Compound 158, (3S)-1-[(2R)-2-[4-(4-fluoro-2-methyl-phenyl)-2-oxo-chromen-7-yl]oxypropanoyl]piperidine-3-carboxylic acid]
26 | 0.02 to 0.1 µM |  | COC(=O)c1cc(NC(=O)[C@@H](C)Oc2ccc3c(-c4ccc(F)cc4Cl)cc(=O)oc3c2)ccn1 [Compound 156, methyl 4-[[(2R)-2-[4-(2-chloro-4-fluoro-phenyl)-2-oxo-chromen-7-yl]oxypropanoyl]amino]pyridine-2-carboxylate]
27 | < 0.02 µM |  | Cc1ccccc1-c1cc(=O)oc2cc(OC(C)C(=O)N3CCC[C@@H](C(=O)O)C3)ccc12 (stereo partly drawn) [Compound 53, (3R)-1-[2-[4-(o-tolyl)-2-oxo-chromen-7-yl]oxypropanoyl]piperidine-3-carboxylic acid]
28 | < 0.02 µM |  | CNS(=O)(=O)C1CCCN(C(=O)C(C)Oc2ccc3c(-c4ccccc4Cl)cc(=O)oc3c2)C1 (stereo not drawn) [Compound 20, 1-[2-[4-(2-chlorophenyl)-2-oxo-chromen-7-yl]oxypropanoyl]-N-methyl-piperidine-3-sulfonamide]
